Laboratory results from ChEMBL document CHEMBL2202987, “Structure based medicinal chemistry approach to develop 4-methyl-7-deazaadenine carbocyclic nucleosides as anti-HCV agent” (Bioorg Med Chem Lett, 2012).

Legend:
[1] = Cytotoxicity against human HuH7 cells by tetrazolium dye method; format: cell-based, Huh-7
Hepatitis C virus = experiment: Antiviral activity against HCV infected in HuH7 cells after 3 days by luciferase reporter gene assay; format: functional, organism-based, Hepacivirus hominis; conditions: Huh-7, 72 h

| Compound | CC50 [1] [µM] | EC50 (Hepatitis C virus) [µM] |
| --- | --- | --- |
| CCCCn1c(=O)c2cc(OC)ccc2c2cc(C(O)(C(F)(F)F)C(F)(F)F)c(OC)cc21 | > 10 | 0.17 |
| Cc1ncnc2c1ccn2[C@@H]1C=C(CO)[C@@H](O)[C@H]1O | > 100 | > 100 |
| Cc1ncnc2c1c(F)cn2[C@@H]1C=C(CO)[C@@H](O)[C@H]1O | > 100 | > 100 |
| Cc1ncnc2c1c(Cl)cn2[C@@H]1C=C(CO)[C@@H](O)[C@H]1O | > 100 | 41.7 |
| Cc1ncnc2c1c(Br)cn2[C@@H]1C=C(CO)[C@@H](O)[C@H]1O | > 100 | 37.3 |
| Cc1ncnc2c1c(I)cn2[C@@H]1C=C(CO)[C@@H](O)[C@H]1O | > 100 | 46.2 |
| C=Cc1cn([C@@H]2C=C(CO)[C@@H](O)[C@H]2O)c2ncnc(C)c12 | 52.8 | 28 |
| C#Cc1cn([C@@H]2C=C(CO)[C@@H](O)[C@H]2O)c2ncnc(C)c12 | > 100 | 67.7 |
